According to the supplement of paper PMC10307832:

What was measured:
Test in all cases: relative viability (nuclei count vs DMSO), 5 days (fraction); higher = more cells survive
Linsitinib + Pemetrexed = compound: C[C@]1(O)C[C@@H](c2nc(-c3ccc4ccc(-c5ccccc5)nc4c3)c3c(N)nccn32)C1 [Linsitinib] + Nc1nc2[nH]cc(CCc3ccc(C(=O)N[C@@H](CCC(=O)O)C(=O)O)cc3)c2c(=O)[nH]1 [Pemetrexed] (partner 0.2 µM)
In short: (§1)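 Relative viability was taken as the ratio of nuclei in treated wells to nuclei in vehicle wells. Lung cancer cell lines in 1536-well plates received compounds by pin tool one day after seeding, either one drug alone or a fixed anchor-drug dose plus five library-drug doses (not always all listed) in √10 steps. Nuclei were counted on 4× images after 5 days of treatment, and values are medians of duplicate plates.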

Linsitinib + Bortezomib = compound: C[C@]1(O)C[C@@H](c2nc(-c3ccc4ccc(-c5ccccc5)nc4c3)c3c(N)nccn32)C1 [Linsitinib] + CC(C)C[C@H](NC(=O)[C@H](Cc1ccccc1)NC(=O)c1cnccn1)B(O)O [Bortezomib] (partner 0.002 µM)
In short: as §1

Ispinesib + Olaparib = compound: Cc1ccc(C(=O)N(CCCN)[C@@H](c2nc3cc(Cl)ccc3c(=O)n2Cc2ccccc2)C(C)C)cc1 [Ispinesib] + O=C(c1cc(Cc2n[nH]c(=O)c3ccccc23)ccc1F)N1CCN(C(=O)C2CC2)CC1 [Olaparib] (partner 8 µM)
In short: as §1

Ispinesib + Crizotinib = compound: Cc1ccc(C(=O)N(CCCN)[C@@H](c2nc3cc(Cl)ccc3c(=O)n2Cc2ccccc2)C(C)C)cc1 [Ispinesib] + C[C@@H](Oc1cc(-c2cnn(C3CCNCC3)c2)cnc1N)c1c(Cl)ccc(F)c1Cl [Crizotinib] (partner 1 µM)
In short: as §1

Cell Line	relative viability (Linsitinib + Pemetrexed; first compound 0.01 µM)	relative viability (Linsitinib + Pemetrexed; first compound 0.03162 µM)	relative viability (Linsitinib + Pemetrexed; first compound 0.1 µM)	relative viability (Linsitinib + Pemetrexed; first compound 1 µM)	relative viability (Linsitinib + Bortezomib; first compound 0.01 µM)	relative viability (Linsitinib + Bortezomib; first compound 0.03162 µM)	relative viability (Linsitinib + Bortezomib; first compound 0.1 µM)	relative viability (Linsitinib + Bortezomib; first compound 0.3162 µM)	relative viability (Linsitinib + Bortezomib; first compound 1 µM)	relative viability (Ispinesib + Olaparib; first compound 0.001 µM)	relative viability (Ispinesib + Olaparib; first compound 0.003162 µM)	relative viability (Ispinesib + Olaparib; first compound 0.01 µM)	relative viability (Ispinesib + Olaparib; first compound 0.03162 µM)	relative viability (Ispinesib + Olaparib; first compound 0.1 µM)	relative viability (Ispinesib + Crizotinib; first compound 0.001 µM)	relative viability (Ispinesib + Crizotinib; first compound 0.003162 µM)	relative viability (Ispinesib + Crizotinib; first compound 0.01 µM)	relative viability (Ispinesib + Crizotinib; first compound 0.03162 µM)	relative viability (Ispinesib + Crizotinib; first compound 0.1 µM)	relative viability (Linsitinib + Pemetrexed; first compound 0.3162 µM)
LU99A	0.161	0.144	0.193	0.198	1.15	1.04	1.19	0.34	0.693	0.249	0.264	0.235	0.234	0.245	0.503	0.589	0.569	0.421	0.231	–
NCI-H596	0.552	0.428	0.497	0.46	1.12	0.996	0.974	0.872	1.06	0.652	0.629	0.638	0.671	0.571	1.1	0.95	1	1.03	0.652	0.447
201T	0.319	0.272	0.343	0.29	1.1	1.12	1.08	1.08	1.03	0.859	0.905	0.958	0.822	0.79	1.05	1.09	1.14	1.04	1.01	0.287
HCC-15	0.215	0.199	0.209	0.213	1.04	0.938	1.1	0.297	0.785	0.683	0.759	0.917	0.831	0.445	0.892	0.976	0.97	0.489	0.15	0.191
